Patent US20230027072A1, “IMPROVED METHODS, KITS, COMPOSITIONS AND DOSING REGIMENS FOR THE USE OF HETEROCYCLIC INHIBITORS OF ERK1 AND ERK2” (Asana Biosciences, LLC, priority 2019, published 2023)

Key:
ERK2 = target: T1, ERK2 (Homo sapiens, UniProt P28482); assay: ERK2 HTRF (biochemical) assay
T1 construct: purchased Jubilant Biosys
Description: (§1) ERK1 and ERK2 HTRF (Biochemical) Assays
(§2) The assays described below employed a homogeneous time resolved fluorescence (HTRF) technique. The compounds were serially diluted by half-log with concentrations ranging from 0.0005 to 10 uM in the assay buffer (50 mM Tris pH-7.5, 1 mM EGTA, 2 mM DTT, 10 mM MgCl2, 0.1% Tween-20) and 20 uL of substrate-ATP mix [1 uM Biotin—LC-Myelin Basic Protein (MBP) derivatized Peptide (Anaspec)-24 uM ATP (Sigma)] was added to each well of the assay plate. Then 10 uL of enzyme mix [25 nM ERK1 or ERK2 (Jubilant Biosys) in assay buffer] was added to each well. The plate was incubated at room temperature for 60 min with shaking. The HTRF mix [625 nM LANCE® Ultra Europium-anti-phospho-MBP (Perkin Elmer) and 2 nM Phycolink® Streptavidin-Allophycocyanin (SA-APC) (Prozyme) in HTRF buffer (50 mM Tris-HCl pH-7.5, 100 mM NaCl, 0.1% BSA, 0.05% Tween20, 0.5 mM EDTA)] was prepared and 75 uL of this mix was added to the HTRF plate. After incubation for 60 min at room temperature, 10 uL of the reaction mixture was transferred to the HTRF assay plate and incubated for 45 min at room temperature with shaking. Plate was read using Pherastar in HTRF mode (excitation 337 nm, emission 665 & 620 nm). The IC50 values (half maximal inhibitory concentration values) were subsequently determined using a sigmoidal dose-response curve (variable slope) in GraphPad Prism® 5 software.

[1] = system: phosphorylation of RSK1(S380) (the downstream target of ERK1/2); assay: Mechanistic (phospho-RSK1(S380) ELISA) assay in HT-29 cells; format: cell-based, human; details: Homo sapiens, HT-29, 2 h, 2 h treatment, read-out: Mechanistic Cell Assay RSK1 Phos HT29 IC50
Description: Mechanistic (Phospho-RSK1(5380) ELISA) Assay
HT-29 cells (colorectal carcinoma, B-RafV600E); obtained from ATCC, USA) were seeded (60,000 cells/well) in a 96-well plate and incubated at 37° C./5% CO2 overnight and then treated with desired compound dilutions for 2 h. Medium was removed and cells were rinsed once with ice-cold 1×PBS, then 0.070 mL ice-cold 1× cell lysis buffer containing 1 mM PMSF was added to each well and the plate was incubated on a shaker for 2 h and 30 min at 4° C. The plate was then centrifuged for 20 min (×4000 rpm) at 4° C. and the supernatant was transferred to a new plate. Cell lysates were diluted with sample diluent at a ratio of 1:1. The ELISA was then carried out following the manufacturer's protocol (PathScan® phospho-RSK1(Ser380) Sandwich ELISA Kit, Cell Signaling Technologies). The plate was read at 450 nm within 30 min after adding STOP solution. The IC50 values were subsequently determined using a sigmoidal dose-response curve (variable slope) in GraphPad Prism® 5 software. Compounds of the present disclosure inhibited phosphorylation of RSK1(5380) (the downstream target of ERK1/2) as determined in this assay.

ERK1 = target: T2, ERK1 (Homo sapiens, UniProt P27361); assay: ERK1 HTRF (biochemical) assay
T2 construct: purchased Jubilant Biosys
Description: as §1, §2

[2] = system: HCT116 (colorectal carcinoma, K Ras G13D) cells; assay: Cell proliferation (Alamar Blue) assay, HCT116; format: cell-based, human; details: Homo sapiens, HCT-116, 72 h
Description: (§3) Cell Proliferation (Alamar Blue) Assay
(§4) HT-29 (colorectal carcinoma, B-RafV600E), HCT116 (colorectal carcinoma, K Ras G13D), A375 (melanoma, B-RafV600E) and SK-Mel2 (melanoma, NRAS Q61R) cells (obtained from ATCC, USA) were seeded (5000 cells/well) in 96-well tissue culture plate and incubated at 37° C./5% CO2 for 16-24 hours. The cells were then treated with compounds, at concentrations typically from 0.0005 to 10 uM prepared in 3-fold serial dilutions. The plates were then incubated for 72 h at 37° C./5% CO2 in a moist environment. Then Alamar Blue™ reagent (final concentration 1×) was added to each well and incubated for 1-3 h at 37° C./5% CO2. The plates were read on fluorescence reader at 540 nm excitation and 590 nm emission wavelengths. The IC50 values were subsequently determined using a sigmoidal dose-response curve (variable slope) using GraphPad Prism® 5 software. Compounds of the present disclosure caused inhibition of HT-29, HCT116, A375 and SK-Mel2 cell proliferation as determined in these assays.

[3] = system: HT-29 (colorectal carcinoma, B-RafV600E) cells; assay: Cell proliferation (Alamar Blue) assay, HT-29; format: cell-based, human; details: Homo sapiens, HT-29, 72 h, read-out: Cell Proliferation Assay HT29 IC50
Description: as §3, §4

T1 sequence (P28482 whole entry): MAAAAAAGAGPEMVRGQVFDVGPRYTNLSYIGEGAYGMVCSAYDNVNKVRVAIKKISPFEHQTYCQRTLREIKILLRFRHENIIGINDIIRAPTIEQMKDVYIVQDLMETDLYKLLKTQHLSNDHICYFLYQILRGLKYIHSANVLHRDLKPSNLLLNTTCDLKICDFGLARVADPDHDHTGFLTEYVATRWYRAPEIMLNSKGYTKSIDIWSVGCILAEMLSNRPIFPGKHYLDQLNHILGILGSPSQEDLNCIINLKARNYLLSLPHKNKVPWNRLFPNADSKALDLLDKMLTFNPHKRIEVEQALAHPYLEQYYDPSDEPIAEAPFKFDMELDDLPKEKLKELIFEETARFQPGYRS
T2 sequence (P27361 whole entry): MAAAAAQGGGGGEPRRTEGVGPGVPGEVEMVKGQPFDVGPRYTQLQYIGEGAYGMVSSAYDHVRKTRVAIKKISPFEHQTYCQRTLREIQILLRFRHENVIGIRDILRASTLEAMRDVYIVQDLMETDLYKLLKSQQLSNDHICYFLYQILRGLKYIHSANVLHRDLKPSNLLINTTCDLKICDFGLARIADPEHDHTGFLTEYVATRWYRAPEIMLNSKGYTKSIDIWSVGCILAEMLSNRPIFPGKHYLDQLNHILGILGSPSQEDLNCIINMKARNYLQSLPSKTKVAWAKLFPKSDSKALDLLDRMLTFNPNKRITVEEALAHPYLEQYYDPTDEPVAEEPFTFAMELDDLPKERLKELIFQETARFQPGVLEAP

With `Cc1cnc(N[C@H]2CCOC2)nc1-n1cnc(C(=O)N[C@H](CN)c2cc(F)cc(Cl)c2)c1` [Example 282, N-(2-amino-1-(3-chloro-5-fluorophenyl)ethyl)-1-(5-methyl-2-(((S)-tetrahydrofuran-3-yl)amino)pyrimidin-4-yl)-1H-imidazole-4-carboxamide] the IC50 (ERK2) was ≤ 50 nM, the IC50 [1] was ≤ 100 nM and the IC50 (ERK1) was ≤ 50 nM. The IC50 [2] was ≤ 100 nM and the IC50 [3] was ≤ 100 nM.
`Cc1cnc(Nc2ccc(Oc3ccccc3)cc2)nc1-n1cnc(C(=O)N[C@H](CO)c2cccc(Cl)c2)c1` [Example 250, N-(1-(3-chlorophenyl)-2-hydroxyethyl)-1-(5-methyl-2-((4-phenoxyphenyl)-amino)pyrimidin-4-yl)-1H-imidazole-4-carboxamide] gave an IC50 (ERK2) of 100 to 500 nM and an IC50 (ERK1) of 500 to 2500 nM.
With `Cc1cnc(NC(C)C2CCOCC2)nc1-n1cnc(C(=O)N[C@H](CO)c2cccc(Cl)c2)c1` (stereo partly shown) [Example 239] the IC50 (ERK2) was ≤ 50 nM, the IC50 [1] was 500 to 2500 nM and the IC50 (ERK1) was ≤ 50 nM. For the same molecule, the IC50 [2] was > 2500 nM.
`CC[C@@H](CO)Nc1cc(-n2cnc(C(=O)NC(CO)c3cccc(Cl)c3)c2)ccn1` (stereo partly drawn) [Compound 105, N-(1-(3-chlorophenyl)-2-hydroxyethyl)-1-(2-(((S)-1-hydroxybutan-2-yl)-amino)pyridin-4-yl)-1H-imidazole-4-carboxamide] was tested, and the IC50 (ERK2) was ≤ 50 nM, the IC50 [1] was 100 to 250 nM and the IC50 (ERK1) was ≤ 50 nM. For the same molecule, the IC50 [2] was > 2500 nM and the IC50 [3] was > 2500 nM.
